{"source": "patent US10238670B2", "about": "“9-aminomethyl minocycline compounds and methods of use thereof in urinary tract infection (UTI) treatment” (Paratek Pharmaceuticals, Inc., priority 2016, dated 2019)", "assay_in_all_cases": "In vitro MIC, 2010 surveillance isolates", "key": {"E. faecalis VNS": {"test_system": "E. faecalis VNS", "assay_type": "cell-based", "conditions": "for Cumulative % Inhibition at MIC: N=54"}, "MRSA": {"test_system": "MRSA", "assay_type": "cell-based", "conditions": "for Cumulative % Inhibition at MIC: N=4192"}, "Enterobacter spp": {"test_system": "Enterobacter spp", "assay_type": "cell-based"}, "E. cloacae CeftazR": {"test_system": "E. cloacae CeftazR", "assay_type": "cell-based", "conditions": "for Cumulative % Inhibition at MIC: N=254"}, "A. baumanii": {"test_system": "A. baumanii", "assay_type": "cell-based"}, "E. cloacae CeftazS": {"test_system": "E. cloacae CeftazS", "assay_type": "cell-based", "conditions": "for Cumulative % Inhibition at MIC: N=550"}, "K. pneumoniae ESBL−": {"test_system": "K. pneumoniae ESBL−", "assay_type": "cell-based, Klebsiella pneumoniae", "conditions": "for Cumulative % Inhibition at MIC: N=1381"}, "K. pneumoniae ESBL+": {"test_system": "K. pneumoniae ESBL+", "assay_type": "cell-based, Klebsiella pneumoniae", "conditions": "for Cumulative % Inhibition at MIC: N=592"}, "E. faecium VNS": {"test_system": "E. faecium VNS", "assay_type": "cell-based", "conditions": "Asia/Pac; N=24"}}}
{"smiles": "CN(C)c1cc(CNCC(C)(C)C)c(O)c2c1C[C@H]1C[C@H]3[C@H](N(C)C)C(O)=C(C(N)=O)C(=O)[C@@]3(O)C(O)=C1C2=O", "note": "[Compound 1, 9-[(2,2-dimethyl-propylamino)-methyl]-minocycline]", "values": [{"measurement": "range of MICs (N <10, shown instead of MIC90)", "setting": "E. faecalis VNS; Asia/Pac, N=1", "result": 0.5}, {"measurement": "range of MICs (N <10, shown instead of MIC90)", "setting": "E. faecalis VNS; Europe, N=8", "result": "0.06-0.5"}, {"measurement": "range of MICs (N <10, shown instead of MIC90)", "setting": "E. faecalis VNS; L. Amer, N=7", "result": "≤0.015-0.06"}, {"measurement": "Cumulative % Inhibition at MIC", "setting": "E. faecalis VNS; MIC 1 μg/ml", "result": 100, "unit": "%"}, {"measurement": "Cumulative % Inhibition at MIC", "setting": "E. faecalis VNS; MIC ≤0.5 μg/ml, listed as head image P00002", "result": 98.1, "unit": "%"}, {"measurement": "MIC90", "setting": "E. faecalis VNS; N America, N=38", "result": 0.25, "unit": "µg/mL"}, {"measurement": "MIC90", "setting": "MRSA; Asia/Pac, N=428", "result": 1, "unit": "µg/mL"}, {"measurement": "MIC90", "setting": "MRSA; Europe, N=750", "result": 0.25, "unit": "µg/mL"}, {"measurement": "MIC90", "setting": "MRSA; L. Amer, N=506", "result": 0.25, "unit": "µg/mL"}, {"measurement": "Cumulative % Inhibition at MIC", "setting": "MRSA; MIC 1 μg/ml", "result": 98.4, "unit": "%"}, {"measurement": "Cumulative % Inhibition at MIC", "setting": "MRSA; MIC 2 μg/ml", "result": 99.8, "unit": "%"}, {"measurement": "Cumulative % Inhibition at MIC", "setting": "MRSA; MIC 4 μg/ml", "result": 100, "unit": "%"}, {"measurement": "Cumulative % Inhibition at MIC", "setting": "MRSA; MIC ≤0.5 μg/ml", "result": 95.4, "unit": "%"}, {"measurement": "MIC90", "setting": "MRSA; N America, N=2508", "result": 0.5, "unit": "µg/mL"}, {"measurement": "MIC90", "setting": "Enterobacter spp; Asia/Pac, N=52", "result": 16, "unit": "µg/mL"}, {"measurement": "MIC90", "setting": "Enterobacter spp; Europe, N=82", "result": 4, "unit": "µg/mL"}, {"measurement": "MIC90", "setting": "Enterobacter spp; L. Amer, N=42", "result": 4, "unit": "µg/mL"}, {"measurement": "MIC90", "setting": "Enterobacter spp; N America, N=101", "result": 4, "unit": "µg/mL"}, {"measurement": "MIC90", "setting": "E. cloacae CeftazR; Asia/Pac, N=63", "result": 8, "unit": "µg/mL"}, {"measurement": "MIC90", "setting": "E. cloacae CeftazR; Europe, N=72", "result": 8, "unit": "µg/mL"}, {"measurement": "MIC90", "setting": "E. cloacae CeftazR; L. Amer, N=42", "result": 4, "unit": "µg/mL"}, {"measurement": "Cumulative % Inhibition at MIC", "setting": "E. cloacae CeftazR; MIC 1 μg/ml", "result": 7.9, "unit": "%"}, {"measurement": "Cumulative % Inhibition at MIC", "setting": "E. cloacae CeftazR; MIC 2 μg/ml", "result": 54.3, "unit": "%"}, {"measurement": "Cumulative % Inhibition at MIC", "setting": "E. cloacae CeftazR; MIC 4 μg/ml", "result": 81.9, "unit": "%"}, {"measurement": "Cumulative % Inhibition at MIC", "setting": "E. cloacae CeftazR; MIC 8 μg/ml", "result": 90.2, "unit": "%"}, {"measurement": "Cumulative % Inhibition at MIC", "setting": "E. cloacae CeftazR; MIC 16 μg/ml", "result": 94.1, "unit": "%"}, {"measurement": "Cumulative % Inhibition at MIC", "setting": "E. cloacae CeftazR; MIC ≤0.5 μg/ml, listed as head image P00015", "result": 0.4, "unit": "%"}, {"measurement": "Cumulative % Inhibition at MIC", "setting": "E. cloacae CeftazR; MIC ≥32 μg/ml", "result": 100, "unit": "%"}, {"measurement": "MIC90", "setting": "E. cloacae CeftazR; N America, N=77", "result": 16, "unit": "µg/mL"}, {"measurement": "MIC90", "setting": "A. baumanii; Asia/Pac, N=275", "result": 4, "unit": "µg/mL"}, {"measurement": "MIC90", "setting": "A. baumanii; Europe, N=145", "result": 4, "unit": "µg/mL"}, {"measurement": "MIC90", "setting": "A. baumanii; L. Amer, N=275", "result": 4, "unit": "µg/mL"}, {"measurement": "MIC90", "setting": "A. baumanii; N America, N=154", "result": 8, "unit": "µg/mL"}, {"measurement": "MIC90", "setting": "E. cloacae CeftazS; Asia/Pac, N=100", "result": 4, "unit": "µg/mL"}, {"measurement": "MIC90", "setting": "E. cloacae CeftazS; Europe, N=183", "result": 4, "unit": "µg/mL"}, {"measurement": "MIC90", "setting": "E. cloacae CeftazS; L. Amer, N=57", "result": 8, "unit": "µg/mL"}, {"measurement": "Cumulative % Inhibition at MIC", "setting": "E. cloacae CeftazS; MIC 1 μg/ml", "result": 15.3, "unit": "%"}, {"measurement": "Cumulative % Inhibition at MIC", "setting": "E. cloacae CeftazS; MIC 2 μg/ml", "result": 70.5, "unit": "%"}, {"measurement": "Cumulative % Inhibition at MIC", "setting": "E. cloacae CeftazS; MIC 4 μg/ml", "result": 93.3, "unit": "%"}, {"measurement": "Cumulative % Inhibition at MIC", "setting": "E. cloacae CeftazS; MIC 8 μg/ml", "result": 95.6, "unit": "%"}, {"measurement": "Cumulative % Inhibition at MIC", "setting": "E. cloacae CeftazS; MIC 16 μg/ml", "result": 97.8, "unit": "%"}, {"measurement": "Cumulative % Inhibition at MIC", "setting": "E. cloacae CeftazS; MIC ≤0.5 μg/ml, listed as head image P00014", "result": 0.5, "unit": "%"}, {"measurement": "Cumulative % Inhibition at MIC", "setting": "E. cloacae CeftazS; MIC ≥32 μg/ml", "result": 100, "unit": "%"}, {"measurement": "MIC90", "setting": "E. cloacae CeftazS; N America, N=210", "result": 4, "unit": "µg/mL"}, {"measurement": "MIC90", "setting": "K. pneumoniae ESBL−; Asia/Pac, N=189", "result": 4, "unit": "µg/mL"}, {"measurement": "MIC90", "setting": "K. pneumoniae ESBL−; Europe, N=361", "result": 4, "unit": "µg/mL"}, {"measurement": "MIC90", "setting": "K. pneumoniae ESBL−; L. Amer, N=160", "result": 4, "unit": "µg/mL"}, {"measurement": "Cumulative % Inhibition at MIC", "setting": "K. pneumoniae ESBL−; MIC 1 μg/ml", "result": 29.1, "unit": "%"}, {"measurement": "Cumulative % Inhibition at MIC", "setting": "K. pneumoniae ESBL−; MIC 2 μg/ml", "result": 79.9, "unit": "%"}, {"measurement": "Cumulative % Inhibition at MIC", "setting": "K. pneumoniae ESBL−; MIC 4 μg/ml", "result": 92.1, "unit": "%"}, {"measurement": "Cumulative % Inhibition at MIC", "setting": "K. pneumoniae ESBL−; MIC 8 μg/ml", "result": 95.6, "unit": "%"}, {"measurement": "Cumulative % Inhibition at MIC", "setting": "K. pneumoniae ESBL−; MIC 16 μg/ml", "result": 98.3, "unit": "%"}, {"measurement": "Cumulative % Inhibition at MIC", "setting": "K. pneumoniae ESBL−; MIC ≤0.5 μg/ml, listed as head image P00009", "result": 2.4, "unit": "%"}, {"measurement": "Cumulative % Inhibition at MIC", "setting": "K. pneumoniae ESBL−; MIC ≥32 μg/ml", "result": 100, "unit": "%"}, {"measurement": "MIC90", "setting": "K. pneumoniae ESBL−; N America, N=671", "result": 4, "unit": "µg/mL"}, {"measurement": "MIC90", "setting": "K. pneumoniae ESBL+; Asia/Pac, N=124", "result": 16, "unit": "µg/mL"}, {"measurement": "MIC90", "setting": "K. pneumoniae ESBL+; Europe, N=151", "result": 8, "unit": "µg/mL"}, {"measurement": "MIC90", "setting": "K. pneumoniae ESBL+; L. Amer, N=209", "result": 16, "unit": "µg/mL"}, {"measurement": "Cumulative % Inhibition at MIC", "setting": "K. pneumoniae ESBL+; MIC 1 μg/ml", "result": 19.3, "unit": "%"}, {"measurement": "Cumulative % Inhibition at MIC", "setting": "K. pneumoniae ESBL+; MIC 2 μg/ml", "result": 56.8, "unit": "%"}, {"measurement": "Cumulative % Inhibition at MIC", "setting": "K. pneumoniae ESBL+; MIC 4 μg/ml", "result": 79.6, "unit": "%"}, {"measurement": "Cumulative % Inhibition at MIC", "setting": "K. pneumoniae ESBL+; MIC 8 μg/ml", "result": 90.2, "unit": "%"}, {"measurement": "Cumulative % Inhibition at MIC", "setting": "K. pneumoniae ESBL+; MIC 16 μg/ml", "result": 94.8, "unit": "%"}, {"measurement": "Cumulative % Inhibition at MIC", "setting": "K. pneumoniae ESBL+; MIC ≤0.5 μg/ml, listed as head image P00010", "result": 1.7, "unit": "%"}, {"measurement": "Cumulative % Inhibition at MIC", "setting": "K. pneumoniae ESBL+; MIC ≥32 μg/ml", "result": 100, "unit": "%"}, {"measurement": "MIC90", "setting": "K. pneumoniae ESBL+; N America, N=108", "result": 16, "unit": "µg/mL"}, {"measurement": "MIC90", "setting": "E. faecium VNS", "result": 0.25, "unit": "µg/mL"}]}
